In patent US8937089B2, “Synergistic mixtures of anthranilamide invertebrate pest control agents” (priority 2004, dated 2015):

Assays:
Assay in all cases: whole plant or invertebrate
Type in all cases: in vivo
[1] = system: silverleaf whitefly (Bemisia argentifolii Bellows and Perring); conditions: Table 2B
From the text: For evaluating control of silverleaf whitefly (Bemisia argentifolii Bellows and Perring) through contact and/or systemic means, each test unit consisted of a small open container with a 12- to 14-day-old cotton plant inside. This was pre-infested by placing test units into cages infested with adult whiteflies so that oviposition on the cotton leaves could occur. The adults were removed from the plants with an air-blast nozzle, and the test units were capped. The test units were then stored 2 to 3 days before spraying.
(§1) Test compounds were formulated using a solution containing 10% acetone, 90% water and 300 ppm X-77® Spreader Lo-Foam Formula non-ionic surfactant containing alkylarylpolyoxyethylene, free fatty acids, glycols and 2-propanol (Loveland Industries, Inc.) to provide the desired concentration in ppm. Formulated test solutions were then applied in 1 mL volumes through a SUJ2 atomizer nozzle with 1/8 JJ custom body (Spraying Systems Co.) positioned 1.27 cm (0.5 inches) above the top of each test unit.
The results for all experimental compositions in this test were replicated three times. After spraying of the formulated test composition, each test unit was allowed to dry for 1 hour and the cap removed. The test units were held for 13 days in a growth chamber at 28° C. and 50-70% relative humidity.

[2] = system: western flower thrip (Frankliniella occidentalis Pergande); conditions: single compound, spray, 7 days
Procedure: as §1
For evaluating control of the western flower thrip (Frankliniella occidentalis Pergande) through contact and/or systemic means, each test unit consisted of a small open container with a 5- to 7-day-old bean (var. Soleil) plant inside.
Test solutions were formulated and sprayed with 3 replications as described for Test A. After spraying, the test units were allowed to dry for 1 hour, 22 to 27 adult thrips were added to each unit and then a black, screened cap was placed on top. The test units were held for 7 days at 25° C. and 45-55% relative humidity.

[3] = system: potato leafhopper (Empoasca fabae Harris); conditions: alone
Procedure: as §1
[…] White sand was added to the top of the soil, and one of the primary leaves was excised prior to application. Test compounds were formulated and sprayed with 3 replications as described for Test A. After spraying, the test units were allowed to dry for 1 hour before they were infested with 5 potato leafhoppers (18- to 21-day-old adults). A black, screened cap was placed on the top of each container. The test units were held for 6 days in a growth chamber at 19-21° C. and 50-70% relative humidity.

[4] = system: corn planthopper (Peregrines maidis); conditions: Corn Plant Hopper; for mortality at 100 ppm: rate 100 ppm; for mortality at 1000 ppm: rate 1000 ppm
Procedure: as §1
For evaluating control of corn planthopper (Peregrines maidis) through contact and/or systemic means, each test unit consisted of a small open cylindrical container with a 3- to 4-day-old corn (maize) plant (spike) inside. White sand was added to the top of the soil prior to application. Test compounds were formulated and sprayed with 3 replications as described for Test A. After spraying, the test units were allowed to dry for 1 hour before they were post-infested with 10 to 20 corn planthoppers (18- to 20-day-old nymphs) by sprinkling them onto the sand with a salt shaker. A black, screened cap was placed on the top of each container. The test units were held for 6 days in a growth chamber at 19-21° C. and 50-70% relative humidity.

[5] = system: cotton melon aphid (Aphis gossypii Glover)
Procedure: as §1
(§2) For evaluating control of cotton melon aphid (Aphis gossypii Glover) through contact and/or systemic means, each test unit consisted of a small open container with a 6- to 7-day-old cotton plant inside. This was pre-infested by placing on a leaf of the test plant 30 to 40 aphids on a piece of leaf excised from a culture plant (cut-leaf method). The larvae moved onto the test plant as the leaf piece desiccated. After pre-infestation, the soil of the test unit was covered with a layer of sand.
(§3) Test compounds were formulated and sprayed as described for Test A. The applications were replicated three times. After spraying of the formulated test compounds, each test unit was allowed to dry for 1 hour and then a black, screened cap was placed on top. The test units were held for 6 days in a growth chamber at 19-21° C. and 50-70% relative humidity.

[6] = system: green peach aphid (Myzus persicae Sulzer); conditions: Green Peach Aphid; for mortality at 100 ppm: rate 100 ppm; for mortality at 1000 ppm: rate 1000 ppm
Procedure: as §1
as §2, with “green peach” for “cotton melon”, “(Myzus persicae Sulzer)” for “(Aphis gossypii Glover)”, “12-” for “6-”, “15-day-old radish” for “7-day-old cotton”
as §3, with “described in” for “described for”, “Test A,” for “Test A. The applications were”, “test compound,” for “test compounds,”

[7] = Frankliniella occidentalis, 168 h, rate 100 ppm, read-out: % mortality (obs)
[8] = Myzus persicae, in Raphanus sativus, read-out: % mortality (obs)

Compound: COc1cccc(C(=O)NN(C(=O)c2cc(C)cc(C)c2)C(C)(C)C)c1C [Methoxyfenozide]
- mortality at 2 ppm ([1]; Bemisia argentifolii, in Gossypium hirsutum, rate 2 ppm, read-out: % mortality (obs)): 1%
- mortality at 10 ppm ([1]; Bemisia argentifolii, in Gossypium hirsutum, rate 10 ppm, read-out: % mortality (obs)): 2%
- mortality at 50 ppm ([1]; Bemisia argentifolii, in Gossypium hirsutum, rate 50 ppm, read-out: % mortality (obs)): 1%
- mortality at 10 ppm ([2]; Frankliniella occidentalis, 168 h, rate 10 ppm, read-out: % mortality (obs)): 60%
- mortality at 100 ppm [2, 7]: 60%
- mortality at 500 ppm ([2]; Frankliniella occidentalis, 168 h, rate 500 ppm, read-out: % mortality (obs)): 60%
- mortality at 0.08 ppm ([3]; Empoasca fabae, rate 0.08 ppm, read-out: % mortality (obs)): 13%
- mortality at 0.4 ppm ([3]; Empoasca fabae, rate 0.4 ppm, read-out: % mortality (obs)): 13%
- mortality at 2 ppm ([3]; Empoasca fabae, rate 2 ppm, read-out: % mortality (obs)): 20%
- mortality at 10 ppm ([4]; rate 10 ppm, read-out: % mortality (obs)): 7%
- mortality at 100 ppm ([4]; read-out: % mortality (obs)): 2%
- mortality at 1000 ppm ([4]; read-out: % mortality (obs)): 10%
- mortality at 5 ppm ([5]; Aphis gossypii, rate 5 ppm, read-out: % mortality (obs)): 32%
- mortality at 50 ppm ([5]; Aphis gossypii, rate 50 ppm, read-out: % mortality (obs)): 54%
- mortality at 500 ppm ([5]; Aphis gossypii, rate 500 ppm, read-out: % mortality (obs)): 38%
- mortality at 10 ppm ([6]; Myzus persicae, in Raphanus sativus, rate 10 ppm, read-out: % mortality (obs)): 7%
- mortality at 100 ppm [6, 8]: 17%
- mortality at 1000 ppm [6, 8]: 6%

Compound: CCN(Cc1ccc(Cl)nc1)/C(=C/[N+](=O)[O-])NC [Nitenpyram]
- % mortality (obs) ([1]; rate 20 ppm): 53%
- % mortality (obs) ([1]; rate 30 ppm): 84%
- % mortality (obs) ([1]; rate 40 ppm): 85%
- % mortality (obs) ([2]; rate 5 ppm): 20%
- % mortality (obs) ([2]; rate 50 ppm): 50%
- % mortality (obs) ([2]; rate 500 ppm): 80%
- % mortality (obs) ([3]; rate 0.3 ppm): 7%
- % mortality (obs) ([3]; rate 0.4 ppm): 73%
- % mortality (obs) ([3]; rate 0.5 ppm): 33%
- % mortality (obs) ([4]; rate 0.1 ppm): 27%
- % mortality (obs) ([4]; rate 0.2 ppm): 100%
- % mortality (obs) ([4]; rate 0.3 ppm): 100%
- % mortality (obs) ([5]; rate 0.2 ppm): 29%
- % mortality (obs) ([5]; rate 0.4 ppm): 49%
- % mortality (obs) ([5]; rate 0.6 ppm): 71%
- % mortality (obs) ([6]; rate 0.2 ppm): 7%
- % mortality (obs) ([6]; rate 0.4 ppm): 17%
- % mortality (obs) ([6]; rate 0.6 ppm): 40%

Compound: CCc1ccc(C(=O)NN(C(=O)c2cc(C)cc(C)c2)C(C)(C)C)cc1 [Tebufenozide]
- mortality at 100 ppm ([1]; Bemisia argentifolii, in Gossypium hirsutum, rate 100 ppm, read-out: % mortality (obs)): 2%
- mortality at 1000 ppm ([1]; Bemisia argentifolii, in Gossypium hirsutum, rate 1000 ppm, read-out: % mortality (obs)): 6%
- mortality at 3000 ppm ([1]; Bemisia argentifolii, in Gossypium hirsutum, rate 3000 ppm, read-out: % mortality (obs)): 7%
- mortality at 100 ppm [2, 7]: 70%
- mortality at 1000 ppm ([2]; Frankliniella occidentalis, 168 h, rate 1000 ppm, read-out: % mortality (obs)): 60%
- mortality at 3000 ppm ([2]; Frankliniella occidentalis, 168 h, rate 3000 ppm, read-out: % mortality (obs)): 60%
- mortality at 3 ppm ([3]; Empoasca fabae, rate 3 ppm, read-out: % mortality (obs)): 40%
- mortality at 4 ppm ([3]; Empoasca fabae, rate 4 ppm, read-out: % mortality (obs)): 27%
- mortality at 5 ppm ([3]; Empoasca fabae, rate 5 ppm, read-out: % mortality (obs)): 20%
- mortality at 100 ppm ([4]; read-out: % mortality (obs)): 12%
- mortality at 1000 ppm ([4]; read-out: % mortality (obs)): 16%
- mortality at 3000 ppm ([4]; rate 3000 ppm, read-out: % mortality (obs)): 12%
- mortality at 0.5 ppm ([5]; Aphis gossypii, rate 0.5 ppm, read-out: % mortality (obs)): 21%
- mortality at 1.5 ppm ([5]; Aphis gossypii, rate 1.5 ppm, read-out: % mortality (obs)): 37%
- mortality at 3 ppm ([5]; Aphis gossypii, rate 3 ppm, read-out: % mortality (obs)): 22%
- mortality at 100 ppm [6, 8]: 8%
- mortality at 1000 ppm [6, 8]: 7%
- mortality at 3000 ppm ([6]; Myzus persicae, in Raphanus sativus, rate 3000 ppm, read-out: % mortality (obs)): 9%

Compound: CS/C(C)=N\OC(=O)N(C)SN(C)C(=O)O/N=C(\C)SC [Thiodicarb]
- % mortality (obs) ([1]; rate 100 ppm): 1%
- % mortality (obs) ([1]; rate 1000 ppm): 0%
- % mortality (obs) ([1]; rate 3000 ppm): 6%
- % mortality (obs) ([2]; rate 20 ppm): 60%
- % mortality (obs) ([2]; rate 200 ppm): 80%
- % mortality (obs) ([3]; rate 0.08 ppm): 0%
- % mortality (obs) ([3]; rate 0.16 ppm): 20%
- % mortality (obs) ([3]; rate 0.4 ppm): 20%
- % mortality (obs) ([4]; rate 0.08 ppm): 2%
- % mortality (obs) ([4]; rate 0.16 ppm): 6%
- % mortality (obs) ([4]; rate 0.4 ppm): 7%
- % mortality (obs) ([5]; rate 3 ppm): 49%
- % mortality (obs) ([5]; rate 10 ppm): 32%
- % mortality (obs) ([5]; rate 30 ppm): 69%
- % mortality (obs) ([6]; rate 20 ppm): 10%
- % mortality (obs) ([6]; rate 150 ppm): 17%
- % mortality (obs) ([6]; rate 900 ppm): 98%

Compound: Acetamiprid
- % mortality (obs) ([1]; rate 1 ppm): 3%
- % mortality (obs) ([1]; rate 5 ppm): 45%
- % mortality (obs) ([1]; rate 20 ppm): 83%
- % mortality (obs) ([2]; rate 1 ppm): 70%
- % mortality (obs) ([2]; rate 100 ppm): 90%
- % mortality (obs) ([2]; rate 3000 ppm): 100%
- % mortality (obs) ([3]; rate 1 ppm): 27%
- % mortality (obs) ([3]; rate 4 ppm): 60%
- % mortality (obs) ([3]; rate 12 ppm): 87%
- % mortality (obs) ([4]; rate 0.3 ppm): 43%
- % mortality (obs) ([4]; rate 0.4 ppm): 85%
- % mortality (obs) ([4]; rate 0.5 ppm): 100%
- % mortality (obs) ([5]; rate 0.02 ppm): 42%
- % mortality (obs) ([5]; rate 0.08 ppm): 67%
- % mortality (obs) ([5]; rate 0.4 ppm): 100%
- % mortality (obs) ([6]; rate 0.2 ppm): 27%
- % mortality (obs) ([6]; rate 0.4 ppm): 52%
- % mortality (obs) ([6]; rate 0.6 ppm): 46%

Compound: Cartap
- % mortality (obs) ([1]; rate 0.1 ppm): 0%
- % mortality (obs) ([1]; rate 0.2 ppm): 0%
- % mortality (obs) ([1]; rate 0.5 ppm): 0%
- % mortality (obs) ([2]; rate 1 ppm): 40%
- % mortality (obs) ([2]; rate 1000 ppm): 100%
- % mortality (obs) ([2]; rate 3000 ppm): 100%
- % mortality (obs) ([3]; rate 0.1 ppm): 20%
- % mortality (obs) ([3]; rate 1 ppm): 73%
- % mortality (obs) ([3]; rate 10 ppm): 100%
- % mortality (obs) ([4]; rate 0.3 ppm): 100%
- % mortality (obs) ([4]; rate 3 ppm): 100%
- % mortality (obs) ([4]; rate 30 ppm): 100%
- % mortality (obs) ([5]; rate 0.2 ppm): 29%
- % mortality (obs) ([5]; rate 2 ppm): 34%
- % mortality (obs) ([5]; rate 200 ppm): 83%
- % mortality (obs) ([6]; rate 0.2 ppm): 11%
- % mortality (obs) ([6]; rate 0.4 ppm): 26%
- % mortality (obs) ([6]; rate 0.6 ppm): 17%
